Test results reported in patent publication US10590140B2, “Tetrahydropyrimidodiazepine and dihydropyridodiazepine compounds for treating pain and pain related conditions” (ESTEVE PHARMACEUTICALS, S.A., priority 2016, dated 2020).

Biological target: human α2δ-1 subunit of Cav2.2 calcium channel (Homo sapiens (Human), UniProt P54289)
Test: Binding assay to human α2δ-1 subunit of Cav2.2 calcium channel ([3H]-Gabapentin)
Conditions: binding to α2δ-1, [3H]-Gabapentin; read-out: Ki (nM) α2δ-1
Description: Binding Assay to Human α2δ-1 Subunit of Cav2.2 Calcium Channel.
NSB (non specific binding) was measured by adding 10 μM pregabalin. After 60 min incubation at 27° C., binding reaction was terminated by filtering through Multiscreen GF/C (Millipore) presoaked in 0.5% polyethyleneimine in Vacuum Manifold Station, followed by 3 washes with ice-cold filtration buffer containing 50 mM Tris-HCl, pH 7.4.
Filter plates were dried at 60° C. for 1 hour and 30 μl of scintillation cocktail were added to each well before radioactivity reading.

Sequence of human α2δ-1 subunit of Cav2.2 calcium channel (P54289 25-1103): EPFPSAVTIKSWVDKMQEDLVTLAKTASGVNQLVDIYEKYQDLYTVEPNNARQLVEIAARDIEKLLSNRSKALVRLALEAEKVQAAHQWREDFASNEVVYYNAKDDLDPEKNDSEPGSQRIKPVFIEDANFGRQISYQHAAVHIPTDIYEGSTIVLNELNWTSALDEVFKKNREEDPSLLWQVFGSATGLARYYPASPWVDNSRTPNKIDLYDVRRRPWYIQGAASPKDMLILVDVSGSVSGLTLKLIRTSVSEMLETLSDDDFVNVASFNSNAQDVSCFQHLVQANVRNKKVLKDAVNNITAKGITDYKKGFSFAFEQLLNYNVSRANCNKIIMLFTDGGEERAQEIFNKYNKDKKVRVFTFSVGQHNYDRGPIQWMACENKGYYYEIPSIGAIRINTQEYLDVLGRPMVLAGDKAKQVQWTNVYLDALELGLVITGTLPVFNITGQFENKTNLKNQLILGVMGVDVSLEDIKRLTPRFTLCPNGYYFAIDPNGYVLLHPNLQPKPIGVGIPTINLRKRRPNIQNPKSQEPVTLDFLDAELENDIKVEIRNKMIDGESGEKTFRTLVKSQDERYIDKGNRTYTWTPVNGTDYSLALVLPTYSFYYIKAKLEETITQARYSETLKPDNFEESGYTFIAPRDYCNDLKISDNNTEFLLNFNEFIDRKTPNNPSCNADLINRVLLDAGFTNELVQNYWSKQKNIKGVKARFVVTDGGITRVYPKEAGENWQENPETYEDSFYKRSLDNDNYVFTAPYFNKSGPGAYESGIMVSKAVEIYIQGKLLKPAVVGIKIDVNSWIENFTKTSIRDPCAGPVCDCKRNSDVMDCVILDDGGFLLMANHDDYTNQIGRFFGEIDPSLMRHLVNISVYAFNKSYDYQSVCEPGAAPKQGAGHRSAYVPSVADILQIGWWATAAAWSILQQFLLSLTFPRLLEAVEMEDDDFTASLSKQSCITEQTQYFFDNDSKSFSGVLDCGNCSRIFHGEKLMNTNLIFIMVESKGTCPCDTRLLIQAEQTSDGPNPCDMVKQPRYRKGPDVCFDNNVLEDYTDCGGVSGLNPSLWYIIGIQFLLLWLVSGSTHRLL

Row | Ki [nM] | SMILES
1 | > 3000 | CSc1ncc2c(n1)N(C)CCN(c1cccc(OC(CCN(C)C(=O)OC(C)(C)C)c3cccnc3)c1)C2=O (centres unmarked) [Example 53, tert-butyl methyl(3-(3-(9-methyl-2-(methylthio)-5-oxo-5,7,8,9-tetrahydro-6H-pyrimido[4,5-e][1,4]diazepin-6-yl)phenoxy)-3-(pyridin-3-yl)propyl) carbamate]
2 | > 3000 | CNCCC(Oc1ccccc1CN1CCN(C)c2nc(SC)ncc2C1=O)c1ccccc1 (centres unmarked) [Example 370, 9-methyl-6-(2-(3-(methylamino)-1-phenylpropoxy)benzyl)-2-(methylthio)-6,7,8,9-tetrahydro-5H-pyrimido[4,5-e][1,4]diazepin-5-one]
3 | > 3000 | CNCC(Oc1ccccc1N1CCN(C)c2nc(SC)ncc2C1=O)c1ccccc1 (centres unmarked) [Example 319, 9-methyl-6-(2-(2-(methylamino)-1-phenylethoxy)phenyl)-2-(methylthio)-6,7,8,9-tetrahydro-5H-pyrimido[4,5-e][1,4]diazepin-5-one]
4 | > 3000 | CN(CCC(OCc1cccc(N2CCN(C)c3ncncc3C2=O)c1)c1cccs1)C(=O)OC(C)(C)C (centres unmarked) [Example 146, tert-butyl methyl(3-((3-(9-methyl-5-oxo-5,7,8,9-tetrahydro-6H-pyrimido[4,5-e][1,4]diazepin-6-yl)benzyl)oxy)-3-(thiophen-2-yl)propyl)carbamate]
5 | > 3000 | CSc1ncc2c(n1)N(C)CCN(c1cccc(OC(CCN(C)C(=O)OC(C)(C)C)c3cccs3)c1)C2=O (centres unmarked) [Example 12, tert-butyl methyl(3-(3-(9-methyl-2-(methylthio)-5-oxo-5,7,8,9-tetrahydro-6H-pyrimido[4,5-e][1,4]diazepin-6-yl)phenoxy)-3-(thiophen-2-yl)propyl) carbamate]
6 | 100 to 500 | CCN1CCN(Cc2ccc(O[C@@H](CCNC)c3cccs3)cc2)C(=O)c2cncnc21 [Example 398, (S)-9-ethyl-6-(4-(3-(methylamino)-1-(thiophen-2-yl)propoxy)benzyl)-6,7,8,9-tetrahydro-5H-pyrimido[4,5-e][1,4]diazepin-5-one]
7 | 100 to 500 | CCNc1cc2c(cn1)C(=O)N(c1cccc(-c3nnc(C)o3)c1)CCN2C [Example 54, 8-(ethylamino)-1-methyl-4-(3-(5-methyl-1,3,4-oxadiazol-2-yl)phenyl)-1,2,3,4-tetrahydro-5H-pyrido[4,3-e][1,4]diazepin-5-one]
8 | 100 to 500 | CCNc1ncc2c(n1)N(C)CCN(c1cccc(-n3cc(CN4CCC5(CC4)NCCc4ccccc45)nn3)c1)C2=O [Example 283, 6-(3-(4-((3,4-dihydro-2H-spiro[isoquinoline-1,4′-piperidin]-1′-yl)methyl)-1H-1,2,3-triazol-1-yl)phenyl)-2-(ethylamino)-9-methyl-6,7,8,9-tetrahydro-5H-pyrimido[4,5-e] [1,4]diazepin-5-one]
9 | > 3000 | CCNc1ncc2c(n1)N(C)CCN(c1cccc(OC(CNC(=O)OC(C)(C)C)c3ccccc3)c1)C2=O (centres unmarked) [Example 73, tert-butyl (2-(3-(2-(ethylamino)-9-methyl-5-oxo-5,7,8,9-tetrahydro-6H-pyrimido[4,5-e][1,4]diazepin-6-yl)phenoxy)-2-phenylethyl)carbamate]
10 | > 3000 | CSc1ncc2c(n1)N(C)CCN(Cc1ccc(CN(C)C(=O)OC(C)(C)C)cc1)C2=O [Example 64, tert-butyl methyl(4-((9-methyl-2-(methylthio)-5-oxo-5,7,8,9-tetrahydro-6H-pyrimido[4,5-e][1,4]diazepin-6-yl)methyl)benzyl) carbamate]
11 | > 3000 | CCNc1ncc2c(n1)N(C)CCN(c1ccccc1OC(CNC)c1ccccc1)C2=O (centres unmarked) [Example 338, 2-(ethylamino)-9-methyl-6-(2-(2-(methylamino)-1-phenylethoxy)phenyl)-6,7,8,9-tetrahydro-5H-pyrimido[4,5-e][1,4]diazepin-5-one]
12 | > 3000 | CCNc1ncc2c(n1)N(C)CCN(c1cccc(C(C)(C)CN(C)C(=O)OC(C)(C)C)c1)C2=O [Example 93, tert-butyl (2-(3-(2-(ethylamino)-9-methyl-5-oxo-5,7,8,9-tetrahydro-6H-pyrimido[4,5-e][1,4]diazepin-6-yl)phenyl)-2-methylpropyl)(methyl) carbamate]
13 | > 3000 | CSc1ncc2c(n1)N(C)CCN(c1cccc(CO[C@H](CCN(C)C(=O)OC(C)(C)C)c3ccccc3)c1)C2=O [Example 10, tert-butyl (R)-methyl(3-((3-(9-methyl-2-(methylthio)-5-oxo-5,7,8,9-tetrahydro-6H-pyrimido[4,5-e][1,4]diazepin-6-yl)benzyl)oxy)-3-phenylpropyl) carbamate]
14 | > 3000 | CCNc1ncc2c(n1)N(C)CCN(c1ccccc1COC(CCNC)c1ccccc1)C2=O (centres unmarked) [Example 337, 2-(ethylamino)-9-methyl-6-(2-((3-(methylamino)-1-phenylpropoxy)methyl)phenyl)-6,7,8,9-tetrahydro-5H-pyrimido[4,5-e][1,4]diazepin-5-one]
15 | > 3000 | CCNc1ncc2c(n1)N(C)CCN(c1cccc(CCN(C)C(=O)OC(C)(C)C)c1)C2=O [Example 92, tert-butyl (3-(2-(ethylamino)-9-methyl-5-oxo-5,7,8,9-tetrahydro-6H-pyrimido[4,5-e][1,4]diazepin-6-yl)phenethyl)(methyl) carbamate]
16 | > 3000 | Cc1nnc(-c2cccc(N3CCN(C)c4nc(NC5CCCCC5)ncc4C3=O)c2)o1 [Example 103, 2-(cyclohexylamino)-9-methyl-6-(3-(5-methyl-1,3,4-oxadiazol-2-yl)phenyl)-6,7,8,9-tetrahydro-5H-pyrimido[4,5-e][1,4]diazepin-5-one]
17 | 100 to 500 | CCNc1ncc2c(n1)N(C)CCN(c1cccc(CCNC)c1)C2=O [Example 172, 2-(ethylamino)-9-methyl-6-(3-(2-(methylamino)ethyl)phenyl)-6,7,8,9-tetrahydro-5H-pyrimido[4,5-e][1,4]diazepin-5-one]
18 | > 3000 | CNCCC(OCc1cccc(N2CCN(C)c3nc(SC)ncc3C2=O)c1)C(C)C (centres unmarked) [Example 190, 9-methyl-6-(3-(((4-methyl-1-(methylamino)pentan-3-yl)oxy)methyl)phenyl)-2-(methylthio)-6,7,8,9-tetrahydro-5H-pyrimido[4,5-e][1,4]diazepin-5-one]
19 | > 3000 | COCCNc1ncc2c(n1)N(C)CCN(c1cccc(-c3nnc(C)o3)c1)C2=O [Example 99, 2-((2-methoxyethyl)amino)-9-methyl-6-(3-(5-methyl-1,3,4-oxadiazol-2-yl)phenyl)-6,7,8,9-tetrahydro-5H-pyrimido[4,5-e][1,4]diazepin-5-one]
20 | > 3000 | CSc1ncc2c(n1)N(C)CCN(c1cccc(OCCCN(Cc3ccccc3)C(=O)OC(C)(C)C)c1)C2=O [Example 21, tert-butyl benzyl(3-(3-(9-methyl-2-(methylthio)-5-oxo-5,7,8,9-tetrahydro-6H-pyrimido[4,5-e][1,4]diazepin-6-yl)phenoxy)propyl) carbamate]
21 | > 3000 | CNCCC(OCc1ccccc1CN1CCN(C)c2nc(C)ncc2C1=O)c1ccccc1 (centres unmarked) [Example 421, 2,9-dimethyl-6-(2-((3-(methylamino)-1-phenylpropoxy)methyl)benzyl)-6,7,8,9-tetrahydro-5H-pyrimido[4,5-e][1,4]diazepin-5-one]
22 | > 3000 | CCNc1ncc2c(n1)N(C)CCN(c1ccccc1COC(CNC)c1ccccc1)C2=O (centres unmarked) [Example 339, 2-(ethylamino)-9-methyl-6-(2-((2-(methylamino)-1-phenylethoxy)methyl)phenyl)-6,7,8,9-tetrahydro-5H-pyrimido[4,5-e][1,4]diazepin-5-one]
23 | > 3000 | Cc1nnc(-c2cccc(N3CCN(C)c4nc(NCCc5ccccc5)ncc4C3=O)c2)o1 [Example 105, 9-methyl-6-(3-(5-methyl-1,3,4-oxadiazol-2-yl)phenyl)-2-(phenethylamino)-6,7,8,9-tetrahydro-5H-pyrimido[4,5-e][1,4]diazepin-5-one]
24 | > 3000 | CCNc1ncc2c(n1)N(C)CCN(c1cccc(OC(CCN(C)C(=O)OC(C)(C)C)c3ccccn3)c1)C2=O (centres unmarked) [Example 128, tert-butyl (3-(3-(2-(ethylamino)-9-methyl-5-oxo-5,7,8,9-tetrahydro-6H-pyrimido[4,5-e][1,4]diazepin-6-yl)phenoxy)-3-(pyridin-2-yl)propyl)(methyl) carbamate]
25 | > 3000 | Cc1cc2c(cn1)C(=O)N(c1cccc(COC(CCN(C)C(=O)OC(C)(C)C)c3ccccc3)c1)CCN2C (centres unmarked) [Example 303, tert-butyl (3-((3-(1,8-dimethyl-5-oxo-1,2,3,5-tetrahydro-4H-pyrido[4,3-e][1,4]diazepin-4-yl)benzyl)oxy)-3-phenylpropyl)(methyl) carbamate]
26 | > 3000 | CSc1ncc2c(n1)N(C)CCN(c1cccc(-c3noc(C)n3)c1)C2=O [Example 31, 9-methyl-6-(3-(5-methyl-1,2,4-oxadiazol-3-yl)phenyl)-2-(methylthio)-6,7,8,9-tetrahydro-5H-pyrimido[4,5-e][1,4]diazepin-5-one]
27 | 100 to 500 | CNCCC(Oc1ccc(CN2CCN(C)c3nc(OC)ncc3C2=O)cc1)c1nccs1 (centres unmarked) [Example 390, 2-methoxy-9-methyl-6-(4-(3-(methylamino)-1-(thiazol-2-yl)propoxy)benzyl)-6,7,8,9-tetrahydro-5H-pyrimido[4,5-e][1,4]diazepin-5-one]
28 | > 3000 | CCNc1ncc2c(n1)N(C)CCN(c1cccc(CCO)c1)C2=O [Example 113, 2-(ethylamino)-6-(3-(2-hydroxyethyl)phenyl)-9-methyl-6,7,8,9-tetrahydro-5H-pyrimido[4,5-e][1,4]diazepin-5-one]

Row | SMILES | Ki [nM]
29 | CCNc1cc2c(cn1)C(=O)N(c1cccc(COC(CCN(C)C(=O)OCC[Si](C)(C)C)c3cccs3)c1)CCN2C (centres unmarked) [Example 60, 2-(trimethyl-silyl)ethyl (3-((3-(8-(ethylamino)-1-methyl-5-oxo-1,2,3,5-tetrahydro-4H-pyrido[4,3-e] [1,4]diazepin-4-yl)benzyl)oxy)-3-(thiophen-2-yl)propyl) (methyl) carbamate] | > 3000
